Like-named read-outs stand apart in the source and are kept apart here.

Experiment [1] deals with T1, APE1 (Homo sapiens, UniProt P27695).
T1 construct: made in house
Description: in-house high-throughput in vitro biochemical assay for APE1 endonuclease activity (fluorescence-based).

The target of experiment [2] is Endonuclease IV (Escherichia coli, UniProt P0A6C1). Conditions: from IC50 for APE1 and EndoIV.

T1 sequence (P27695 whole entry): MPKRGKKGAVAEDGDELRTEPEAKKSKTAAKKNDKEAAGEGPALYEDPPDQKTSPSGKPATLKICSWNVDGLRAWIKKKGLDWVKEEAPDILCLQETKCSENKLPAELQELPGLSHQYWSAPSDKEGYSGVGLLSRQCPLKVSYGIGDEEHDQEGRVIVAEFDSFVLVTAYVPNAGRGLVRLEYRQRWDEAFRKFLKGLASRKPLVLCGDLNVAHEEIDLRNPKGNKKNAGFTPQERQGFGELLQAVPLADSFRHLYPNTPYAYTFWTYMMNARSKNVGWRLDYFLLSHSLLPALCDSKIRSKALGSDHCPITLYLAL

Broadly, the IC50 is the concentration needed to halve the response being measured. Read a high IC50 as a need for much substance. With `CC(=O)Nc1sc2c(c1-c1nc3ccccc3s1)CCN(C(C)C)C2` [Inhibitor III], the 50% inhibitory concentration (IC50) in experiment [1] was 2000 nM; in experiment [1] (listed as APE1 Inhibitor III), roughly 2000 nM. In addition, the “selectivity for APE1 over EndoIV” value in experiment [2] amounted to 3 fold.

The record behind these values is paper PMC10706420, “A New Drug Discovery Platform: Application to DNA Polymerase Eta and Apurinic/Apyrimidinic Endonuclease 1” (International Journal of Molecular Sciences, 2023).
